From patent publication US11845892B2, “Use of complex polyesteramines and polyester polyquaternary ammonium compounds as corrosion inhibitors” (Clariant International, Ltd., priority 2021, dated 2023)

Assay: Rotating Cage Autoclave Test (RCA), sour
Settings: 150 ppm, 200 ppm H2S, 15% CO2, balance N2, 65° C., 70 bar, 72 hours, 1700 rpm
Method: In order to evaluate the corrosion inhibition efficacy of the polyesters according to the invention, 4 different test methods were employed: Linear Polarizing Resistance (LPR), Rotating Cylinder Electrode Test (RCE), Shell wheel test and High Pressure/High Temperature Rotating Cage Autoclave Test (RCA). For all testing 3.5% NaCl brine was used. For the application tests the materials to be tested (inventive as well as comparative) were diluted with butyl glycol to an active content of 25 wt.-% prior to testing. The dosage rates given in the tables refer to these 25 wt.-% active formulations.
Autoclaves equipped with rotating cages (RCA) were used to simulate high shear conditions for the purpose of evaluating system corrosivity and inhibitor performance. The testing solution consisted of 720 mL 3.5% NaCl brine and 80 mL LVT-200 oil. The synthetic brine had three cycles of vacuum/CO2 charge to the vessel prior to initiating the test to remove dissolved oxygen and to achieve an anaerobic system. Two weight loss corrosion coupons fixed on the rotating cage were used in each autoclave. General corrosion rates were calculated by weight loss measurement. A blank was run for comparison. Test conditions have been summarized below in Table 5.

## N-tallow alkyl hexahydropyrimidinium ethoxylate methosulfate [sample 6]
  Average corrosion rate [mpy]: 8.99 mpy
  Percent protection: 92.8%
